Test results from US11478478B2, “2,3-disubstituted 1-acyl-4-amino-1,2,3,4-tetrahydroquinoline derivatives and their use as bromodomain inhibitors” (GLAXOSMITHKLINE INTELLECTUAL PROPERTY (NO.2) LIMITED, priority 2013, dated 2022).
Structures can show the parent of a compound that is named as a salt.

Molecular target: T1, BRD4 BD2 (Homo sapiens, UniProt O60885, Y97A)
T1 construct: BRD4 (1-477) (Y97A) and (Y390A); made in house; host or cells: E. coli (pET15b vector)
Test: TR-FRET binding assay, BRD4 BD2 (BD1-mutated protein)
Conditions: read-out: pIC50 in the BRD4 BD2 assay (converted)
Description: Time Resolved Fluorescence Resonance Energy Transfer (TR-FRET) Assay Binding was assessed using a time resolved fluorescent resonance energy transfer binding assay. This utilises a 6 His purification tag at the N-terminal of the proteins as an epitope for an anti-6 His antibody labeled with Europium chelate (PerkinElmer AD0111) allowing binding of the Europium to the proteins which acts as the donor fluorophore. A small molecule, high affinity binder of the bromodomains BRD2, BRD3, BRD4 and BRDT has been labeled with Alexa Fluor647 (Reference Compound X) and this acts as the acceptor in the FRET pair.
In the absence of a competing compound, excitation of the Europium causes the donor to emit at λ618 nm which excites the Alexa labelled bromodomain binding compound leading to an increased energy transfer that is measurable at λ647 nM. In the presence of a sufficient concentration of a compound that can bind these proteins, the interaction is disrupted leading to a quantifiable drop in fluorescent resonance energy transfer.
The binding of the compounds of formula (I) to Bromodomains BRD2, BRD3, BRD4 and BRDT was assessed using mutated proteins to detect differential binding to either Binding Domain 1 (BD1) or Binding Domain 2 (BD2) on the bromodomain. These single residue mutations in the acetyl lysine binding pocket greatly lower the affinity of the fluoroligand (Reference Compound X) for the mutated domain (>1000 fold selective for the non-mutated domain). Therefore in the final assay conditions, binding of the fluoroligand to the mutated domain cannot be detected and subsequently the assay is suitable to determine the binding of compounds to the single non-mutated bromodomain.
Recombinant Human Bromodomains [(BRD2 (1-473) (Y113A) and (Y386A), BRD3 (1-435) (Y73A) and (Y348A) BRD4 (1-477) (Y97A) and (Y390A) and BRDT (1-397) (Y66A) and (Y309A)] were expressed in E. coli cells (in pET15b vector for BRD2/3/4 and in pET28a vector for BRDT) with a 6-His tag at the N-terminal. The His-tagged Bromodomain pellet was resuspended in 50 mM HEPES (pH7.5), 300 mM NaCl, 10 mM imidazole & 1 μl/ml protease inhibitor cocktail and extracted from the E. coli cells using sonication and purified using a nickel sepharose high performance column, the proteins were washed and then eluted with a linear gradient of 0-500 mM imidazole with buffer 50 mM HEPES (pH7.5), 150 mM NaCl, 500 mM imidazole, over 20 column volumes. Final purification was completed by Superdex 200 prep grade size exclusion column. Purified protein was stored at −80° C. in 20 mM HEPES pH 7.5 and 100 mM NaCl. Protein identity was confirmed by peptide mass fingerprinting and predicted molecular weight confirmed by mass spectrometry.
All assay components were dissolved in buffer composition of 50 mM HEPES pH7.4, 50 mM NaCl, 5% Glycerol, 1 mM DTT and 1 mM CHAPS. The final concentration of bromodomain proteins were 10 nM and the Alexa Fluor647 ligand was at Kd. These components were premixed and 5 μl of this reaction mixture was added to all wells containing 50 nl of various concentrations of test compound or DMSO vehicle (0.5% DMSO final) in Greiner 384 well black low volume microtitre plates and incubated in dark for 30 minutes at rt. 5 μl of detection mixture containing 1.5 nM final concentration anti-6His Europium chelate was added to all wells and a further dark incubation of at least 30 minutes was performed. Plates were then read on the Envision platereader, (λex=317 nm, donor λem=615 nm; acceptor λem=665 nm; Dichroic LANCE dual). Time resolved fluorescent intensity measurements were made at both emission wavelengths and the ratio of acceptor/donor was calculated and used for data analysis. All data was normalized to the mean of 16 high (inhibitor control—Example 11 of WO 2011/054846A1) and 16 low (DMSO) control wells on each plate. A four parameter curve fit of the following form was then applied: y=a+((b−a)/(1+(10^/10^)^d) […]

SMILES | IC50 [nM]
CC(=O)N1c2ccccc2[C@H](Nc2cncc(Cl)c2)[C@@H](C)[C@@H]1C (racemic) [Example 22, rac-1-((2S,3R,4R)-4-((5-chloropyridin-3-yl)amino)-2,3-dimethyl-3,4-dihydroquinolin-1(2H)-yl)ethanone] | 100
CC(=O)N1c2ccncc2C(Nc2nccc(C)n2)C(C)C1C1CC1 (racemic) [Example 598b, rac-1-((2,3,4 unknown)-2-cyclopropyl-3-methyl-4-((4-methylpyrimidin-2-yl)amino)-3,4-dihydro-1,6-naphthyridin-1(2H)-yl)ethanone] | 1000 to 100000
CC(=O)N1c2ccc(-c3cn[nH]c3)cc2[C@H](Nc2nccc(C)n2)[C@@H](C)[C@@H]1C1CC1 [Example 582, 1-((2S,3R,4R)-2-cyclopropyl-3-methyl-4-((4-methylpyrimidin-2-yl)amino)-6-(1H-pyrazol-4-yl)-3,4-dihydroquinolin-1(2H)-yl)ethanone] | 100
CC(=O)N1c2ccc(F)cc2[C@H](Nc2ccc(C#N)cn2)[C@@H](C)[C@@H]1C (racemic) [Example 143, rac-6-(((2S,3R,4R)-1-acetyl-6-fluoro-2,3-dimethyl-1,2,3,4-tetrahydroquinolin-4-yl)amino)nicotinonitrile] | 100
CC(=O)N1c2ccccc2[C@H](Nc2cccc(C)c2)[C@@H](C)[C@@H]1C (racemic) [Example 16, rac-1-((2S,3R,4R)-2,3-dimethyl-4-(m-tolylamino)-3,4-dihydroquinolin-1(2H)-yl)ethanone] | 100
COC[C@H]1[C@H](C)[C@@H](Nc2ccccc2)c2ccccc2N1C(C)=O (racemic) [Example 54, rac-1-((2R,3R,4R)-2-(methoxymethyl)-3-methyl-4-(phenylamino)-3,4-dihydroquinolin-1(2H)-yl)ethanone] | 1000 to 100000
CC(=O)N1c2cccnc2[C@@H](Nc2cccc(C)n2)[C@H](C)[C@H]1C1CC1 (single isomer, unassigned) [Example 114b] | 1000 to 100000
CC(=O)N1c2ccccc2[C@H](Nc2cccc(C)n2)[C@@H](C)[C@@H]1C1CC1 (single isomer, unassigned) [Example 29a] | 100
CC(=O)N1c2cccnc2[C@H](Nc2cccc(C)n2)[C@@H](C)[C@@H]1C1CC1 (racemic) [Example 113, rac-1-((2S,3R,4R)-2-cyclopropyl-3-methyl-4-((6-methylpyridin-2-yl)amino)-3,4-dihydro-1,5-naphthyridin-1(2H)-yl)ethanone] | 1000 to 100000
CC(=O)N1c2ccccc2[C@H](Nc2cccc(CN)c2)[C@@H](C)[C@@H]1C1CC1 (racemic) [Example 124, rac-1-((2S,3R,4R)-4-((3-(aminomethyl)phenyl)amino)-2-cyclopropyl-3-methyl-3,4-dihydroquinolin-1(2H)-yl)ethanone, hydrochloride] | 100
CC(=O)N1c2ccc(C3=CCNCC3)cc2[C@H](Nc2cccc(C)n2)[C@@H](C)[C@@H]1C1CC1 (racemic) [Example 87, rac-1-((2S,3R,4R)-2-cyclopropyl-3-methyl-4-((6-methylpyridin-2-yl)amino)-6-(1,2,3,6-tetrahydropyridin-4-yl)-3,4-dihydroquinolin-1(2H)-yl)ethanone] | 100

The remaining lines, values ahead:

IC50 [nM] | SMILES
100 | CC(=O)N1c2ccc(F)cc2[C@H](Nc2ccc(C#N)cc2)[C@@H](C)[C@@H]1C1CC1 (racemic) [Example 161, rac-4-(((2S,3R,4R)-1-acetyl-2-cyclopropyl-6-fluoro-3-methyl-1,2,3,4-tetrahydroquinolin-4-yl)amino)benzonitrile]
1000 to 100000 | CC(=O)N1c2ccc(C3CCNCC3)cc2[C@H](Nc2cnc(C)cn2)[C@@H](C)[C@@H]1C (racemic) [Example 183, rac-1-((2S,3R,4R)-2,3-dimethyl-4-((5-methylpyrazin-2-yl)amino)-6-(piperidin-4-yl)-3,4-dihydroquinolin-1(2H)-yl)ethanone, hydrochloride]
1000 to 100000 | CC[C@H]1[C@H](C)[C@@H](Nc2ccc(C(=O)NC)cc2)c2cc(N3CCNCC3)ccc2N1C(C)=O (racemic) [Example 220, rac-4-(((2S,3R,4R)-1-acetyl-2-ethyl-3-methyl-6-(piperazin-1-yl)-1,2,3,4-tetrahydroquinolin-4-yl)amino)-N-methylbenzamide]
100 | CNC(=O)c1ccc2c(c1)[C@H](Nc1cccc(C)n1)[C@@H](C)[C@H](C1CC1)N2C(C)=O (single isomer, unassigned) [Example 239a]
100 | CNC(=O)c1ccc2c(c1)[C@H](Nc1nccc(C)n1)[C@@H](C)[C@H](C1CC1)N2C(C)=O (racemic) [Example 240, rac-(2S,3R,4R)-1-acetyl-2-cyclopropyl-N,3-dimethyl-4-((4-methylpyrimidin-2-yl)amino)-1,2,3,4-tetrahydroquinoline-6-carboxamide]
100 | CC(=O)N1c2ccc(C(=O)NC(CO)CO)cc2[C@H](Nc2ccc(C#N)cc2)[C@@H](C)[C@@H]1C1CC1 [Example 493, (2S,3R,4R)-1-acetyl-4-((4-cyanophenyl)amino)-2-cyclopropyl-N-(1,3-dihydroxypropan-2-yl)-3-methyl-1,2,3,4-tetrahydroquinoline-6-carboxamide]
1000 to 100000 | CC(=O)N1c2ccc(C3CCNCC3)cc2[C@H](Nc2ccc(C#N)cn2)[C@@H](C)[C@@H]1C (racemic) [Example 187, rac-6-(((2S,3R,4R)-1-acetyl-2,3-dimethyl-6-(piperidin-4-yl)-1,2,3,4-tetrahydroquinolin-4-yl)amino)nicotinonitrile]
100 | CC(=O)N1c2ccc(C(=O)NCCO)cc2[C@H](Nc2ccc(F)c(C)n2)[C@@H](C)[C@@H]1C [Example 433, (2S,3R,4R)-1-acetyl-4-((5-fluoro-6-methylpyridin-2-yl)amino)-N-(2-hydroxyethyl)-2,3-dimethyl-1,2,3,4-tetrahydroquinoline-6-carboxamide]
100 | CC[C@H]1[C@H](C)[C@@H](Nc2ccc(C#N)cn2)c2cc(C(=O)NC)ccc2N1C(C)=O (racemic) [Example 237, rac-(2S,3R,4R)-1-acetyl-4-((5-cyanopyridin-2-yl)amino)-2-ethyl-N,3-dimethyl-1,2,3,4-tetrahydroquinoline-6-carboxamide]
100 | CC(=O)N1c2ccc(N3CCC(N)CC3)cc2[C@H](Nc2ccccc2)[C@@H](C)[C@@H]1C (racemic) [Example 74, rac-1-((2S,3R,4R)-6-(4-aminopiperidin-1-yl)-2,3-dimethyl-4-(phenylamino)-3,4-dihydroquinolin-1(2H)-yl)ethanone, hydrochloride]
100 | CNC(=O)c1ccc(N[C@H]2c3cc(F)ccc3N(C(C)=O)[C@@H](C)[C@@H]2C)cc1 [Example 506, 4-(((2S,3R,4R)-1-acetyl-6-fluoro-2,3-dimethyl-1,2,3,4-tetrahydroquinolin-4-yl)amino)-N-methylbenzamide]
100 | CNC(=O)c1ccc2c(c1)[C@H](Nc1ccc(C#N)cn1)[C@@H](C)[C@H](C)N2C(C)=O (racemic) [Example 230, rac-(2S,3R,4R)-1-acetyl-4-((5-cyanopyridin-2-yl)amino)-N,2,3-trimethyl-1,2,3,4-tetrahydroquinoline-6-carboxamide]
100 | CCNC(=O)c1ccc2c(c1)[C@H](Nc1cccc(C)n1)[C@@H](C)[C@H](C1CC1)N2C(C)=O [Example 248, (2S,3R,4R)-1-acetyl-2-cyclopropyyl-N-ethyl-3-methyl-4-((6-methylpyridin-2-yl)amino)-1,2,3,4-tetrahydroquinoline-6-carboxamide]
